Measurements published in patent US10874599B2, “Composition for inhibiting micro-organisms” (Clariant International Ltd., priority 2016, dated 2020).

Assays:
Assay in all cases: MIC agar dilution test
Assay type in all cases: cell-based
Aspergillus brasiliensis = details: Experimental 1; Sabouraud-4% Dextrose-Agar, pH 5.6 (+/−0.2)
Procedure: (§1) For testing the inhibition of bacteria, Composition 6 from Table 1 above was diluted in butylpolyglycol and added in different concentrations to liquid Caso-Agar at 50° C. and is buffered to pH 7 (+/−0.2). For testing the inhibition of yeast and mold, the Composition 6 was diluted in butylpolyglycol and added in different concentrations to liquid Sabouraud-4% Dextrose-Agar at 50° C. and is buffered to pH 5.6 (+/−0.2). Each of the solutions is poured into a petri-dish and inoculated with the same amount of bacteria, yeast or mold respectively. The minimum inhibitory concentration (MIC) is the lowest concentration of Composition 6 that inhibits the growth of the respective microorganism where the next lowest dilution fails to inhibit the growth of said microorganism.
(§2) A similar experiment was carried out versus Experimental 1. The composition employed in this second experiment is almost identical in composition to Composition 6 from Table 1 above, differing only slightly in the exact levels of the components. Composition 6a is according to the first aspect of the present invention. Here, a comparison is made versus the efficacy of phenoxyethanol, alone and in combination with composition 6a.

Aspergillus terreus = details: Experimental 1; Sabouraud-4% Dextrose-Agar, pH 5.6 (+/−0.2)
Procedure: as §1, §2

Candida albicans = details: Experimental 1; Sabouraud-4% Dextrose-Agar, pH 5.6 (+/−0.2)
Procedure: as §1, §2

Candida parapsilosis = details: Experimental 1; Sabouraud-4% Dextrose-Agar, pH 5.6 (+/−0.2)
Procedure: as §1, §2

Citrobacter freundii = details: Experimental 1; Caso-Agar, pH 7 (+/−0.2)
Procedure: as §1, §2

Enterobacter aerogenes = details: Experimental 1; Caso-Agar, pH 7 (+/−0.2)
Procedure: as §1, §2

Enterobacter gergovia = details: Experimental 1; Caso-Agar, pH 7 (+/−0.2)
Procedure: as §1, §2

Escherichia coli = details: Experimental 1; Caso-Agar, pH 7 (+/−0.2)
Procedure: as §1, §2

Fusarium solani = details: Experimental 1; Sabouraud-4% Dextrose-Agar, pH 5.6 (+/−0.2)
Procedure: as §1, §2

Klebsiella pneumoniae = details: Experimental 1; Caso-Agar, pH 7 (+/−0.2)
Procedure: as §1, §2

Penicillium funicolosium = details: Experimental 1; Sabouraud-4% Dextrose-Agar, pH 5.6 (+/−0.2)
Procedure: as §1, §2

Penicillium minioluteum = details: Experimental 1; Sabouraud-4% Dextrose-Agar, pH 5.6 (+/−0.2)
Procedure: as §1, §2

Pseudomonas aeruginosa = details: Experimental 1; Caso-Agar, pH 7 (+/−0.2)
Procedure: as §1, §2

Saccharomyces cerevisiae = details: Experimental 1; Sabouraud-4% Dextrose-Agar, pH 5.6 (+/−0.2)
Procedure: as §1, §2

Staphylococcus aureus = details: Experimental 1; Caso-Agar, pH 7 (+/−0.2)
Procedure: as §1, §2

Brevibacterium linens = details: Experimental 1; Caso-Agar, pH 7 (+/−0.2)
Procedure: as §1

Cornyebacterium jeikeium = details: Experimental 1; Caso-Agar, pH 7 (+/−0.2)
Procedure: as §1

Cornyebacterium xerosis = details: Experimental 1; Caso-Agar, pH 7 (+/−0.2)
Procedure: as §1

Malassezia furfur = details: Experimental 1; Sabouraud-4% Dextrose-Agar, pH 5.6 (+/−0.2)
Procedure: as §1

Malassezia pachydermatis = details: Experimental 1; Sabouraud-4% Dextrose-Agar, pH 5.6 (+/−0.2)
Procedure: as §1

Malassezia sympiodalis = details: Experimental 1; Sabouraud-4% Dextrose-Agar, pH 5.6 (+/−0.2)
Procedure: as §1

Staph. Epidermis = details: Experimental 1; Caso-Agar, pH 7 (+/−0.2)
Procedure: as §1

Streptococcus mutans = details: Experimental 1; Caso-Agar, pH 7 (+/−0.2)
Procedure: as §1

**Q.** Which results are given for Sorbitan Caprylate?
**A.** MIC (Aspergillus brasiliensis): 800 ppm; MIC (Aspergillus terreus): 800 ppm; MIC (Candida albicans): 800 ppm; MIC (Candida parapsilosis): 800 ppm; MIC (Citrobacter freundii): 10000 ppm; MIC (Enterobacter aerogenes): 10000 ppm; MIC (Enterobacter gergovia): 10000 ppm; MIC (Escherichia coli): 10000 ppm; MIC (Fusarium solani): 800 ppm; MIC (Klebsiella pneumoniae): 800 ppm; MIC (Penicillium funicolosium): 400 ppm; MIC (Penicillium minioluteum): 400 ppm; MIC (Pseudomonas aeruginosa): 10000 ppm; MIC (Saccharomyces cerevisiae): 600 ppm; MIC (Staphylococcus aureus): 800 ppm; MIC (Brevibacterium linens): 4000 ppm; MIC (Cornyebacterium jeikeium): 4000 ppm; MIC (Cornyebacterium xerosis): 2000 ppm; MIC (Malassezia furfur): 600 ppm; MIC (Malassezia pachydermatis): 400 ppm; MIC (Malassezia sympiodalis): 400 ppm; MIC (Staph. Epidermis): 10000 ppm; MIC (Streptococcus mutans): 2000 ppm
